A melting point compilation (Tetko et al.; mined from patent text by program, amines drawn as free bases though some values may be those of a salt)

melting point [°C]	Structure (SMILES)
139 to 141	Nc1nc(OS(=O)(=O)c2ccccc2)ncc1F
152 to 155	CN1C(=O)CC[C@]2(C)c3ccc(Sc4ccc5cc(F)ccc5n4)cc3CC[C@@H]12
212 to 214	O=C(c1cc(C(F)(F)F)cc(C(F)(F)F)c1)N1CCC2(CC1)C(=O)N(c1cc(Cl)ncn1)CN2c1ccccc1
253 to 255	CCOc1cc(C(=O)NC2CC(C)(C)NC(C)(C)C2)ccc1-c1cc2cc(Cl)c(Cl)cc2[nH]1
240	O=C(O)C(=O)Nc1cccc(-c2nnn[nH]2)c1
90 to 93.5	COC(=O)c1ccc(C(=O)OC)c(SCc2ccccc2)c1
258 to 260	Cc1[nH]c(C(=O)N2CCC(C(=O)NCCN(C)C)CC2)c(C)c1-c1nc2ccc(C(=O)c3ccccc3)cc2[nH]1
83 to 85	COc1ccc(C2(O)CCSCC2)cc1OC1CCCC1
205 to 206	CCC1(CC(=NNc2ccc([N+](=O)[O-])cc2[N+](=O)[O-])C(=O)OC)CCCN2CCc3c([nH]c4ccccc34)C21 (configuration not stated)
112 to 113	Fc1cc2c(c(-c3c(Cl)cccc3Cl)c1)OC(CNC1CC1)C2 (configuration not stated)
166 to 167	CN(C(=O)OC(C)(C)C)c1cc(Oc2ccc(-c3ccccc3)cc2)ccc1[N+](=O)[O-]
146 to 148	Cn1nnnc1SCC1=NCCc2cc(OCc3ccccc3)c(OCc3ccccc3)cc21
122 to 124	CCCCN1C(=O)c2c(ncn2C)N2CCN=C12
149 to 159	CCOC(=O)c1cnc2c(NC(=O)c3c(Cl)cccc3Cl)cccc2c1CC(=O)O
102 to 103	O=C(CCC=C(c1ccccc1)c1ccccc1)NCCCCn1ccnc1
271 to 272	CC(C)(C)Nc1c(NCc2ccncc2)c(=O)c1=O
173 to 176	COc1ccc(N2c3ccccc3Sc3ccccc32)cc1
139 to 140	CCNC(=O)c1sc(N2CCN(Cc3ccc(OC(F)(F)F)cc3)C2=O)nc1C
98 to 100	COC(=O)c1cscc1NC(=O)CCl
133 to 134	O=C(C=Cc1ccccc1C(=O)Cl)c1ccc([N+](=O)[O-])cc1
160 to 161	CCc1nc2c(C)cc(C)nc2n1Cc1ccc(C(c2ccccc2C)C(C(=O)O)C(=O)O)cc1 (configuration not stated)
160 to 165	CCCNC(=O)NS(=O)(=O)c1ccccc1-c1ccc(Cn2c(CCC)nc(C)c2C(=S)OCC)cc1
76 to 77	Nc1cccc(Oc2ccc(Cl)nn2)c1
227 to 232	Cn1c(C(F)(F)F)cc(=O)n(-c2ccc3snc(C4SCCS4)c3c2)c1=O

melting point [°C]	Structure (SMILES)
157	CC1=CC2=C(N3CN(N4CCCC4)C=C3N=N2)N(c2cc(Cl)ccc2Cl)C1
150 to 154	CC1(C)CCN(c2ccc(-c3nc(C(=O)Nc4nccs4)c(-c4ccc(Cl)cc4)[nH]3)cc2)CC1
95 to 96	Cc1oc(-c2ccccc2)nc1COc1ccc(CON=C(CCCCC(N)=O)c2ccccc2)cc1
60.5 to 62	CN(C)C=CC(=O)c1cccc(C(F)(F)F)c1
> 300	Cn1c2cc(Cl)ccc2c2c(=O)[nH]c(-c3ccncc3)nc21
110 to 113	CCOC(=O)C(C)(C)Oc1ccc(C(=O)Cc2ccccc2)cc1
123 to 124	CSCc1c(C(F)(F)F)nn(C)c1O
173 to 177	CCC(C)Cc1c(-c2ccc(C(N)=S)cc2Cl)c(C)nc2ncnn12 (configuration not stated)
207 to 208	CC(=O)Nc1cnc(-c2ccccc2)c(-c2ccc(=O)n(C(C)C)n2)c1
> 300	CC(C)Cn1cnc2c(O)nc3ccccc3c21
> 25	OC1CCCC(n2c(NC3CC3)nc3cc(Cl)c(Cl)cc32)C1O (configuration not stated)
188 to 190	CC(C)n1nc(-c2sc(C(=O)NCc3ccccn3)nc2-c2cccc(F)c2)ccc1=O
159 to 161	CNC(=NC#N)NCCSCc1csc(NC(=N)N)n1
182 to 185	COc1ccc(-c2ccc3c(C#N)c(OC)ccc3c2)cc1
131 to 132	CCOC(=O)Cc1sc(SCc2cc(O)nc(C)n2)nc1C
78 to 80	CCN(CC)CCN1CCN(CCCN2CCCCC2)C1=C(C#N)C#N
95	COc1ccc(-c2nc(-c3ccc4c(c3)OCO4)c(-c3ccc4c(c3)OCO4)[nH]2)c(OC)c1
133 to 134	COC(=O)c1sccc1NS(=O)(=O)c1nc2nc(C3CC3)cc(C)n2n1
252 to 256	N#Cc1ccc(N2CCN(Cc3cnc4c(c3)NC(=O)[C@@H]3CCCN43)CC2)nc1
118 to 119	O=C1Nc2ccccc2CO1
65 to 68	OC(CNC1CCc2ccccc2C1)COc1cccc2[nH]ccc12 (configuration not stated)
205 to 207	CCCc1c(C(=O)N(C)Cc2ccc3c(Br)c(O)ccc3c2)cnn1-c1ccccc1
118 to 119	CC(C)CC(C(=O)O)c1cc(Cl)c(-c2ccc(Cl)c(Cl)c2)c(OCC2CC2)c1 (configuration not stated)
214 to 217	CCOC(OCC)c1nc(N)nc(N)c1-c1cccc(Cl)c1Cl

melting point [°C]	Structure (SMILES)
190 to 192	Nc1noc2cc3c(cc12)C1(CO3)C(=O)N(Cc2ccccn2)c2ccccc21 (configuration not stated)
135 to 138	COc1ccc2c(c1)C(=O)C(C)(C)CC2c1ccc(Cl)cc1 (configuration not stated)
188 to 189	COc1cccc(C(N)=O)c1SSc1c(OC)cccc1C(N)=O
85 to 88	CCCCCCCCCCCCCCCCCC(=O)N1CC1C#N (configuration not stated)
129 to 130	CC(=O)Nc1nc2c(s1)CCN(Cc1ccccc1)CC2
105 to 107	CN(C)S(=O)(=O)Oc1ccc(-c2ccccc2)cc1
168 to 169	CCc1cc2[nH]c(=O)ccc2c(CC)n1
260 to 261	COc1ccc(C(=O)Nc2ccccc2)cc1NS(=O)(=O)c1sc(NC(C)=O)nc1C
256 to 258	Cc1ccc(-c2[nH]c(-c3ccc([N+](=O)[O-])cc3)nc2C(=O)Nc2nccs2)cc1
163 to 164	CC(C)N(O)C(=O)Nc1ccc(S(C)(=O)=O)cc1
125 to 127	CCOC(=O)CSC1(SCC(=O)OCC)CCC2C3CCC4=CC(=O)C=CC4(C)C3(F)C(O)CC21C (configuration not stated)
186 to 187	c1ccc(N(c2ccccc2)c2cccc3cc(-c4nc5ccccc5s4)ccc23)cc1
107 to 108	Cc1oc(-c2ccco2)nc1COc1cc(CCl)ccn1
191 to 193	COc1ccc([C@@H]2Cc3c(Cl)cccc3NC(=O)[C@@H]2O)cc1
97 to 98	COC(=O)c1ccc(/C=C(\C)c2ccc3c(c2)SCCCN3C)cc1
167 to 168	CCCCc1ccc2c(c1)C(=O)N(c1ccc3c(ccn3C)c1)C2
62 to 62.5	Cc1ccc2c(c1)CC(=O)c1cc(C)ccc1O2
171 to 172	COc1ccc(Oc2ccccc2-c2cn(C(C)(C)C)c(N)c2C#N)cc1
133 to 134	C/C(=C(\C#N)C(N)=S)N1CCCN(c2cccc(Cl)c2)CC1
> 300	O=c1nc(-c2ccccc2)c2cc([N+](=O)[O-])ccc2[nH]1
110	CCOC(=O)CCCC(=O)CNC(=O)c1csc(NC(=O)NCc2ccccn2)n1
150	CCN(C(=O)C(F)(F)F)c1ccc(C(=O)Nc2ccc3ccc(OC)nc3n2)cc1
69 to 71	O=C1c2ccccc2C(=O)N1CCc1cccc(C(F)(F)F)c1
136 to 137	Cc1ccc(C2c3c(C)c(N4CCN(c5cccnc5)CC4)c(C)c(C)c3OC2(C)C)cc1 (configuration not stated)

melting point [°C]	Structure (SMILES)
136 to 137	COC(=O)CC(C(=O)OC)N1C(=O)C2NC(C)(C)SC21 (configuration not stated)
> 240	COC(=O)CCCCN(CCc1cc(-c2ccc(F)cc2F)ccc1OCc1ccc(-c2ccc(C(F)(F)F)cc2)cc1)Cc1ccc(C(=O)OC)cc1
98 to 106	Cc1noc(NS(=O)(=O)c2ccccc2-c2ccc(-c3ncco3)cc2CCN(C)C(=O)Cc2ccccc2)c1C
180 to 182	COc1ccc(N2CCN(c3cc4c(c(C)c3C)OC(C)(C)C4)CC2)cc1
206 to 208	O=C(Nc1n[nH]c2nc(Oc3ccc(F)cc3F)ncc12)C1CCCC1
84.5 to 86	CN(O)C(=O)NCCc1cccc(Oc2ccccc2)c1
106 to 107	C[C@@H](n1cnc2cc(F)ccc2c1=O)[C@](O)(Cn1cncn1)c1ccc(F)cc1F
128	CCC(O)(CC)c1cc(C)c(-c2cc(OCc3ccc(CO)c(CO)c3)ccc2C)c(C)c1
160 to 162	Nc1c(-c2cc(Cl)ccc2O)c2cc(I)ccc2[nH]c1=O
89.5 to 90.5	CCCCCCc1cn(C)cc(-c2cccc(C(F)(F)F)c2)c1=O
166 to 168	CCCCCCCNC(=O)Nc1ccc(N2CCCCC2)cc1C(=O)NCC1CCN(C(c2ccccc2)c2ccccc2)CC1
111 to 113	N#CCc1ccc(NC(=O)CNc2ccccc2F)cc1
73 to 75	COC(=O)c1cccc(CN2C(=O)C(CCO)Oc3ccccc32)c1 (configuration not stated)
200 to 203	CCCc1nc2c(N)nc3cc(OCc4cccc(C)c4)ccc3c2n1CC(C)C
207 to 210	COc1ccc(/C=C/C(=O)CC(=O)/C=C/c2ccc(O)cc2)cc1O
165 to 166	O=C(NCCc1ccccc1)C1=C(C(=O)Nc2cc(OC3CCCC3)c(Cl)cc2F)CCCC1
198 to 200	Cc1nc(N2CCN(CC3CC3)C2=O)sc1C(N)=O
97 to 98	CC(=O)c1cc(Cl)c(N)cc1F
207 to 209	O=C1N(Cc2ccc3ncnn3c2)c2ccccc2C12COc1cc3c(cc12)OCCO3 (configuration not stated)
230 to 232	COc1nc(Cl)cc2nc(S(=O)(=O)Nc3nn(C)cc3Br)nn12
126 to 129	CNC(=O)[C@@H]1CCCN1C(=O)[C@H](C)NC(=O)OCc1ccccc1
200	O=C(Nc1ccc(C(=O)N2C[C@@H]3CCCN3c3ccccc32)cc1)c1ccccc1-c1ccccc1

Structure (SMILES)	melting point [°C]
CC1CCC2(C)C(=CCC3C4CC(Cl)C(=O)C4(C)CCC32)C1 (configuration not stated)	159 to 165
O=C(c1ccc(Cl)cc1)c1ccc2c(c1)C(c1cccc(Cl)c1)=NCC(=S)N2	125
CCN1CCC2(CC1)COc1cc3c(cc12)N(C(=O)c1ccc(-c2ccc(-c4noc(C)n4)cc2C)cc1)CC3	202 to 204
